The values below come from ChEMBL document CHEMBL5154721, “Discovery of HDAC6-Selective Inhibitor NN-390 with in Vitro Efficacy in Group 3 Medulloblastoma” (J Med Chem, 2022).

For series [1], the system named is MV4-11. Description: Induction of apoptosis in human MV4-11 cells assessed as late apoptotic cells at 1 uM after 24 hrs by Annexin V/PI staining based flow cytometric analysis (Rvb=2%). It counts as functional. (In general: Flow cytometry measures light scatter and fluorescence of single cells or particles in a stream.)
Series [2] concerns the target T1, Protein deacetylase HDAC6 (Homo sapiens) (UniProt Q9UBN7).
T1 sequence (whole entry): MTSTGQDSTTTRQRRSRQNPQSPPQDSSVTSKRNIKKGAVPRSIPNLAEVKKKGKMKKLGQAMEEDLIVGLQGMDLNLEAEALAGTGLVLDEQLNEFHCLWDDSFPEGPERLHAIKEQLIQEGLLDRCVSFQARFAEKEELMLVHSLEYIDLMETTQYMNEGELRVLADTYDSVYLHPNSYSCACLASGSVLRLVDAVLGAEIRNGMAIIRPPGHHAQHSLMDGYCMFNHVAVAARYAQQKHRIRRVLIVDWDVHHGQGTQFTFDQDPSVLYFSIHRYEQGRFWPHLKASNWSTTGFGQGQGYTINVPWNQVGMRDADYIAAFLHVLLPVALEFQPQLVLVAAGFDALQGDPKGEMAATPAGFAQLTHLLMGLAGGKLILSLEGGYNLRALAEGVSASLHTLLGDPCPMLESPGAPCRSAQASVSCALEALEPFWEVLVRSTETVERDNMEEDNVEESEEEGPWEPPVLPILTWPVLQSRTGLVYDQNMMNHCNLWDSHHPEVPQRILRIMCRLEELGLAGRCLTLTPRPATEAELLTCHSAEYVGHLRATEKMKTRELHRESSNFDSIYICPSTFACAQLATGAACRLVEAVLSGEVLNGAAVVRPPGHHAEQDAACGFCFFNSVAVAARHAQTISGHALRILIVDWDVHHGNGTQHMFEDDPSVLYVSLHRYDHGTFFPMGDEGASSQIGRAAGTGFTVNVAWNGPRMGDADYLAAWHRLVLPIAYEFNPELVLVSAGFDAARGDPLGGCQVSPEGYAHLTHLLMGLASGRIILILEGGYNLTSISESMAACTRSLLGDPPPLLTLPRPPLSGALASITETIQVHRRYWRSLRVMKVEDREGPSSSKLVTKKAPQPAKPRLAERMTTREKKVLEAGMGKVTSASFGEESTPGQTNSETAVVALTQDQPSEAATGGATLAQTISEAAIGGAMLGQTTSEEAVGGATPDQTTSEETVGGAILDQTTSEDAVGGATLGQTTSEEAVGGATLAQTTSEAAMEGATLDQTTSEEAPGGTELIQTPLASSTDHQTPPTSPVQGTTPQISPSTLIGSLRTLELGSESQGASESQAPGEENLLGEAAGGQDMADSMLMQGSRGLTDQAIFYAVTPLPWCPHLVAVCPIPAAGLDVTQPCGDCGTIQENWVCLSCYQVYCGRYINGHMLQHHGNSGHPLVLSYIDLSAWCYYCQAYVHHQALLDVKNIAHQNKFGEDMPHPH
Briefly: Inhibition of full length human recombinant HDAC6 in human MV4-11 cells assessed as increase in acetylation of alpha-tubulin at 0.1 uM for 6 hrs by Western blot analysis. It counts as cell-based.

Another series deals with HD-MB03. Briefly: Antiproliferative activity against human HD-MB03 cells at 964 nM after 4 hrs by microplate reader method. Format: functional, cell-based.
A short description of series [3]: Cytotoxicity against human HD-MB03 cells assessed as inhibition of cell growth incubated for 72 hrs measured by spectrophotometer analysis. As to conditions: HD-MB03, 72 h. Format: functional, cell-based.
In a further series the target is T2, Histone deacetylase 7 (Homo sapiens, UniProt Q8WUI4).
T2 sequence (Q8WUI4 whole entry): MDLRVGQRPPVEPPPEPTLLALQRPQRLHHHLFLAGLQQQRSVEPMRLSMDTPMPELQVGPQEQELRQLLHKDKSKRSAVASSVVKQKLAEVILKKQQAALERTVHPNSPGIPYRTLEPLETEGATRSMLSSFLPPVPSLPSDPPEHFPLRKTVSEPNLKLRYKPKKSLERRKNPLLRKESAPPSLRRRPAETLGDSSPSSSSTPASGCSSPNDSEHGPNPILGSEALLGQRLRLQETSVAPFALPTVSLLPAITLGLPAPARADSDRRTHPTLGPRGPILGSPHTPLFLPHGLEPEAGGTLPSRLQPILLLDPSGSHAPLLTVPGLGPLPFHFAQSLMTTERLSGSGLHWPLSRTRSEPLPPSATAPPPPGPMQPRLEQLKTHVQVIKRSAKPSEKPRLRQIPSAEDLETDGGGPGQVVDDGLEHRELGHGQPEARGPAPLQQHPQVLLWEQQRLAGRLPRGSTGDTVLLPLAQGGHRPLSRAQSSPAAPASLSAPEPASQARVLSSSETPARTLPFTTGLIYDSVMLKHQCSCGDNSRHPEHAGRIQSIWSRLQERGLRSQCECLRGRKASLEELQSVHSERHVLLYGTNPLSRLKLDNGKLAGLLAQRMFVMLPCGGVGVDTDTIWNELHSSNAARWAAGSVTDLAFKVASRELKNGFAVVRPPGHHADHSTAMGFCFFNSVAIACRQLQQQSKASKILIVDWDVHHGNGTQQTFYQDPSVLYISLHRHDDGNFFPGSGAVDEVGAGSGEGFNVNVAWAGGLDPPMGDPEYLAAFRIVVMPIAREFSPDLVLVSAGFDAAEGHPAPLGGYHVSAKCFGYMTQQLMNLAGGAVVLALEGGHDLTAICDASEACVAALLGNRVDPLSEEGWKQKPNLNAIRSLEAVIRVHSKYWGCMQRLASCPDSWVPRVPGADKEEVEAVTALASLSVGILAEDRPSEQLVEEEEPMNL
Briefly: Inhibition of full length human recombinant HDAC7 expressed in Sf9 baculovirus system using FAM-labeled acetylated peptide as substrate by measuring fluorescence intensity by EMSA method.

Series [4] deals with MV4-11. Briefly: Induction of apoptosis in human MV4-11 cells assessed as viable cells at 0.75 uM after 24 hrs by Annexin V/PI staining based flow cytometric analysis (Rvb=58.28%). As to conditions: read-out: Activity. Format: functional.
The target of series [5] is T1, Protein deacetylase HDAC6 (Homo sapiens). Briefly: Inhibition of full length human recombinant HDAC6 in human HD-MB03 cells assessed as increase in acetylation of alpha tubulin at 53 nM for 6 hrs by western blotting anlaysis. It counts as cell-based.
Series [6] has as its system MV4-11. Briefly: Induction of apoptosis in human MV4-11 cells assessed as late apoptotic cells at 2 uM after 18 hrs by Annexin V/PI staining based flow cytometric analysis. It counts as functional.
The nature of series [7]: Dissociation constant, pKa of compound. It counts as physicochemical.
Series [8] addresses T1, Protein deacetylase HDAC6 (Homo sapiens). Description: Binding affinity to full length human recombinant HDAC6 expressed in Sf9 baculovirus system assessed as residence time (1/koff).
In series [9] the test system is MV4-11. Briefly: Induction of apoptosis in human MV4-11 cells assessed as viable cells at 2 uM after 24 hrs by Annexin V/PI staining based flow cytometric analysis (Rvb=58.28%). It counts as functional. As to conditions: read-out: Activity.
A further series addresses Histone deacetylase 9 (Homo sapiens, UniProt Q9UKV0). Briefly: Inhibition of full length human recombinant HDAC9 expressed in Sf9 baculovirus system using FAM-labeled acetylated peptide as substrate by measuring fluorescence intensity by EMSA method. For orientation: A gel shift assay detects complexes by their altered migration in electrophoresis.
Series [10] concerns MV4-11. Description: cells. Format: functional, cell-based. As to conditions: Homo sapiens, MV4-11, 72 h.

Calls of active or inactive are those of the source. The rule behind the calls is not given here.

Histone deacetylase 9, sequence (Q9UKV0 whole entry): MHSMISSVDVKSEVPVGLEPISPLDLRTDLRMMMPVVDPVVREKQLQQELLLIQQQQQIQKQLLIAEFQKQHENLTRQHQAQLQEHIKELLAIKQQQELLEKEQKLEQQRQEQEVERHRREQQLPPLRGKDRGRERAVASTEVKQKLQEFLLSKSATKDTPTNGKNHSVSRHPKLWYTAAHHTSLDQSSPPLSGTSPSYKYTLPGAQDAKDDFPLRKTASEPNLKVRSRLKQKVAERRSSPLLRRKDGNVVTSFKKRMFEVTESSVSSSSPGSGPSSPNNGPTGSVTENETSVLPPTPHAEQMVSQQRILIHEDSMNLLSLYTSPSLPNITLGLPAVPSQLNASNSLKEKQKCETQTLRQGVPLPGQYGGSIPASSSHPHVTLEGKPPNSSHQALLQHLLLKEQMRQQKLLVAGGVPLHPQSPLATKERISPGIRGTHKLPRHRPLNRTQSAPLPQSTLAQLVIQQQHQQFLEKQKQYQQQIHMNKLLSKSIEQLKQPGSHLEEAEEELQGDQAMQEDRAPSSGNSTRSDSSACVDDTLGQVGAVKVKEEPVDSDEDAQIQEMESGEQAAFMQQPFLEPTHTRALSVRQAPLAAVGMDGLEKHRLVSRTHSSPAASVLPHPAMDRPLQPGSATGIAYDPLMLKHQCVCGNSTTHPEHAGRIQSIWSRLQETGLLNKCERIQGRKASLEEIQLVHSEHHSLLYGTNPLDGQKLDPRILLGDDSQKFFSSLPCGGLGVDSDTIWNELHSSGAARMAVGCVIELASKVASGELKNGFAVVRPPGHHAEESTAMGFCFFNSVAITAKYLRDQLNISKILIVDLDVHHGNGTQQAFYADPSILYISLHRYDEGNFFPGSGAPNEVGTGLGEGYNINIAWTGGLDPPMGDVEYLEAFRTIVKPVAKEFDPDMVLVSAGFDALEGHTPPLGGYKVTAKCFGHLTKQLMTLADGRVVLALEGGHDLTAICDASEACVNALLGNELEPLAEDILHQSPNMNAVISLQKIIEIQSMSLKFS

Consider `CC(C)N(Cc1ccc(C(=O)NO)cc1)S(=O)(=O)c1cc(F)c(F)c(F)c1F`, for which the Activity in the series with MV4-11 [1] was 10.88%; in the series with MV4-11 [6], 39%. For the same compound, the inhibition entry in series [2] and in [5] was “Active” each time. In addition, the outcome in the series with HD-MB03 was Active. Besides, the 50% inhibitory concentration (IC50) – broadly, the concentration that gives 50% inhibition – is 0.13 µM in series [3], greater than 5 µM on Histone deacetylase 7, greater than 5 µM on Histone deacetylase 9 and 1.19 µM in the series on MV4-11 [10]. In addition, the viability at 0.75 µM in the series on MV4-11 [4] came to 85.7%. Moreover, the pKa (as a rule, the pH at which an ionisable group is half protonated) in series [7] turned out to be 8.77. In addition, in [8], the TIME worked out at 0.133 h. Besides, the viability at 2 µM in the series on MV4-11 [9] came out at 32.9%.
